# According to PMC10141580, “Cyclic Dichalcogenides Extend the Reach of Bioreductive Prodrugs to Harness Thiol/Disulfide Oxidoreductases: Applications to seco-Duocarmycins Targeting the Thioredoxin System” (ACS Central Science, 2023):
# How the values were obtained:
# [1] = system: human BxPC-3 pancreatic adenocarcinoma; test: BxPC-3 xenograft efficacy study; assay type: in vivo, athymic nu/nu NMRI mice
# From the text: (§1) We then moved to in vivo anticancer efficacy trials of these prodrugs. […] As one model we chose the syngeneic murine breast cancer 4T1, implanted orthotopically (at the native tissue site) into the fat pad of immunocompetent Balb/c mice (i.e., offering a realistic immune system and tumor microenvironment). This model gives rapid, aggressive tumor growth.[52] As a second model, we chose to xenograft human BxPC-3 pancreatic adenocarcinoma cells into immunodeficient hosts. This is a slower-growing model, with low metastasis, that can be more resistant to traditional antimitotic therapy.[53],[54] Mice were implanted, randomized once tumors reached 100–150 mm^3 volume, and treated once or twice weekly with prodrug or control compounds typically at 3 mg/kg (8–12 animals per condition, Figure 10a). Tumors were measured by caliper during the assay and weighed at termination.
# Finally, we tested P-SS60-CBI-TMI in the slower-growing pancreatic cancer model BxPC-3 in athymic NMRI mice (8 animals per group). […]
# Balb/c mice = test: Moderate repeated dosing tolerability study; assay type: in vivo; settings: once weekly
# Description: Next, a moderate repeated dosing study in Balb/c mice (3 animals per group) tested the importance of solubilizing the prodrugs.
# Methods for in vivo animal studies
# All in vivo studies were conducted as contract research together with React ionBiology Eur ope G mbH (Freiburg,
# Germany), EPO – Experimental Pharmacology & Oncology GmbH (Berlin, Germany); Bient a/ Enam ine Lt d. (Kyiv,
# Ukraine) and Leit at – Managing Technologies (Barcelona, Spain), adhering to the respective animal welfare
# Mice were kept in individually ventilated cages at constant temperature (22±2 °C, air-conditioned) and humidity (45
# – 65%), under optimum hygienic conditions with 10 – 15 air changes per hour. A cycle of 12 h artificial fluorescent
# light ning and 12 h darkness was applied , and animal behavior was monitored daily throughout the studies. The
# animals received food and water ad libit um.
# To evaluate toxicity of selected compounds, dose level selection studies within dose range from 0.1 mg/kg to
# 10 mg/kg were performed by intravenous administration into Balb /c mice. Each dose for each tested compound
# was administered in one mouse.
# changes and clinical signs of gross toxicity three tim es per week for 21 consecutive days of post-dosing period.
# After the first week of observation without adverse events, two doses for each test compound were selected as
# tolerated. These two doses were tested in two additional mice for confirmation of toler ability. Additional animals
# consecutive days of post-dosing period. Toxicity of repeated administrations was tested wit h t hr ee repeat ed pr e-
# selected doses at a dosing interval of 7 days. Mortality, body weight changes, and clinical signs of gross toxicity
# were monitored after each drug administration and three times per week for 21 consecutive days after the first
# compound administration. Bleed ing with subsequent hematological tests, clinical chemistry parameters analysis
# (ALT, AST, ALP, LDH, creatine kinase, creatinine, urea, cholesterol, and triglycerides), and necropsy with
# macroscopic inspection were performed on the terminal day of the repeated dosing-regime.
# To test tolerability of selected compounds in vivo, female BALB/c mice were randomized by weight into seven
# groups of t hree animals.
# 4T1 murine breast cancer = test: 4T1 orthotopic breast cancer efficacy study; assay type: in vivo; settings: 4T1 in Balb/c mice; CBI prodrugs 3 mg/kg
# From the text: as §1
# 7. 2. in vivo efficacy mouse studies
# 4T1 efficacy study BxPC-3 efficacy study a Absolute tumour volumes b Absolute tumour volumes […]
# days after tumor implantation days after tumor implantation c Relative tumour volumes d Relative tumour volumes […]
# e RTV! fi"al day of followu# f ex viv tumour weights g RTV! fi"al day of followu# h ex viv tumour weights (. mice remain in all *roups) (for animals left at day 31)(all *roups have statistical power)(day "2/ all animals left) […]
# vehicle(1x)(1x)(1x) (2x)(2x) […]
# P-##"0-#$%-&'%P-!!"0-#$%-&'%P-!!"0-#$%-()%P-!!"0-#$%-&'% %rinotecan %rinotecan P-##"0-#$%-&'%P-!!"0-#$%-()%P-!!"0-#$%-&'%P-!!"0-#$%-&'% P-!!"0-#$%-&'% P-!!"0-#$%-&'% […]
# i Body weights $ Body weights […]
# implant in Balb/c mice, 8 mice per group; (b, d,g,h,j): BxPC-3 subcutaneous xenograft in NMRi mice, 8 mice per […]
# treatment (m e d ia n); (e,g) in vivo caliper measurement of relative tum or volumes at final day of followup [last day when all mice in all groups remain in the study] […]
# tumor weights at termination of study (only mice not terminated on ethical grounds before the indicated days were harvested); (i,j) Bodyweights (means).
# (BxPC-3 study); dotted vertical lines indicate days of [potential] treatment.
SMILES,"tumor suppression vs irinotecan ([1]; BxPC-3, 3 mg/kg vs irinotecan 10 mg/kg)","tumor growth rate suppression ([1]; BxPC-3, once-weekly 3 mg/kg, over 4 weeks)",outcome of repeated dosing at 3 mg/kg (Balb/c mice),effect on tumor growth (4T1 murine breast cancer)
COc1cc2cc(C(=O)N3C[C@@H](CCl)c4c3cc(OC(=O)N(CCC(=O)N3CCN(C)CC3)[C@H]3CCSSC3)c3ccccc43)[nH]c2c(OC)c1OC [P-SS60-CBI-TMI],almost identical tumor suppression,ca. 70%,tolerated,maintained statistically significant tumor suppression until study termination
COc1cc2cc(C(=O)N3C[C@@H](CCl)c4c3cc(OC(=O)N(CCC(=O)N3CCN(C)CC3)C3CCCCC3)c3ccccc43)[nH]c2c(OC)c1OC [P-CC60-CBI-TMI],–,–,–,delayed tumor growth in the first week of treatment
